Test results: US8921582B2, “Oligo- and polyfurans, preparation and uses thereof” (Yeda Research and Development Co. Ltd., priority 2009, dated 2014)
Converted amounts (≈) assume the structure as drawn. Like-named read-outs stand apart in the source and are kept apart here. Blank lines part the entries; values can stand above or below the molecule they belong to.

Experiments:
[1] = Solubility of oligofurans in organic solvent; assay type: physicochemical; conditions: for solubility: in chloroform (solvent stated)
[2] = Thermogravimetric analysis (TGA) / stability in air; assay type: physicochemical; conditions: stable in air in the absence of light, FIG. 3
Method: FIG. 3 depicts Thermogravimetric Analysis (TGA) of oligofurans (a) 5F-8F and (b) 9F under N2, rate: 5° C./min.
FIG. 11 depicts thermogravimetric analysis (TGA) of oligofurans 6F, 8F and DH-6F under N2. Rate: 5° C./min.

solubility [1]: < 50 µg/mL
SMILES: c1csc(-c2ccc(-c3ccc(-c4ccc(-c5ccc(-c6cccs6)s5)s4)s3)s2)c1 [6T, α-sexithiophene, reference compound]

solubility of 6F relative to corresponding 6T ([1]; in chloroform): over 10 times
solubility ([1]; organic solvent or mixture, read-out: solubility): 700 µg/mL (≈ 1760 µM)
decomposition temperature [2]: 303 °C
SMILES: c1coc(-c2ccc(-c3ccc(-c4ccc(-c5ccc(-c6ccco6)o5)o4)o3)o2)c1 [6F, α-sexifuran]

solubility in warm acetone ([1]; warm acetone, Soxhlet extraction): slightly soluble
SMILES: c1coc(-c2ccc(-c3ccc(-c4ccc(-c5ccc(-c6ccc(-c7ccc(-c8ccc(-c9ccco9)o8)o7)o6)o5)o4)o3)o2)c1 [9F, α-nonafuran]
